Source: patent US20100016546A1, “Therapeutic Peptide-Polysaccharide Biomaterials” (priority 2005, published 2010)
Read-outs that look alike come from different tables or passages of the source. No end group written: not given here.

Assays:
E. coli BL21(DE3) [1] = assay type: cell-based; conditions: for Measured Potency: Free Peptide (LC90) / Measured Potency: Peptide/Agarose Conjugate (LC90): E. coli (BL21 (DE3)); for Measured Potency: Peptide/Agarose Conjugate (LC90): effective peptide concentration
Method: Overall, antimicrobial activity can be evaluated by incubating small cultures of E. coli (BL21) at 37° C. with agitation (e.g., ˜3 to ˜5 hrs) in minimal media in the presence/absence of varied amounts of peptide conjugate or free peptide. Aliquots can be collected at predetermined time points to determine the cell density. One OD600 of the solution=2×10^9 CFU/ml. Correlating changes in cell density between cultures incubated with varied amounts of conjugate and cultures grown in the absence of conjugates can provide a means of evaluating the antimicrobial potency of the varied constructs. Assays such as this one are known to be used in evaluating the potency of antimicrobial peptidomimetics and biomaterials.
In one embodiment, the antimicrobial activity of the free peptides and conjugates have been assayed against E. coli BL21(DE3) cultures. In this assay, the bacteria (at ˜1×10^6 CFU/ml) are incubated for 2 hours at 37° C. in 10 mM phosphate (e.g., Na2HPO4) buffer (pH ˜7.5) with varied concentrations of peptide or peptide-conjugate. After this time, 20 μl aliquots of each culture and serial dilutions of the culture are plated onto LB agar plates and incubated over night at 37° C. The number of colonies on these plates is then counted and the survival percentage is determined relative to a control culture. The example contained no peptide.
In another embodiment, a stock solution containing 1 mg of peptide per ml solution may be prepared. Using the stock peptide (1 mg/ml) solution, assays may be prepared (volume of ˜100 μl) at 1 μg/ml, 10 μg/ml, and 100 μg/ml of free peptide (e.g., HBD-332-45). In the control sample, 10 μl of 100 mM phosphate buffer, 80 μl of sterile water and 10 μl of cell cultures may be combined and incubated without peptide for two hours at 37° C. After two hours incubation, 20 μl aliquots of the above solutions, and 1:10, and 1:100 dilutions of each may be plated in LB-agar plates and incubated over night at 37° C.
In another embodiment, peptide conjugate (e.g., HBD-332-45-agarose) with a loading of 3.82 μg of peptide/1 μl of resin may also be assayed at effective peptide concentrations of 1 μg/ml, 10 μg/ml, 25 μg/ml, 50 μg/ml, 75 μg/ml and 100 μg/ml. For example, an effective peptide concentration of 100 μg/ml of suspension may be prepared by using 52.2 μl of a 50% suspension of 3.82 μg/μl of peptide suspension (100 μg×[1 μl/3.82 μg]=26.1 μl). Samples containing varying concentrations of peptide conjugate may be combined with 10 μl of 100 mM phosphate buffer having a pH of about 7.5, 10 μl of cell cultures (˜1×10^7 CFU/ml), and the required volume of sterile water to bring a total volume of 100 μl. This combination may be incubated at 37° C. with agitation for two hours. After incubation, 20 μl of each cell culture and 1:10 and 1:100 dilutions of each cell culture may be plated on LB-agar plates and incubated at 37° C. overnight. Similar protocols may be used to evaluate the antimicrobial activity of the HBD-336-45 peptide and corresponding conjugate. […]
The results of the antimicrobial assay using free HBD-332-45 and agarose conjugate can be seen in FIG. 17. Antimicrobial activity of free HBD-332-45 is given on the left and that of the HBD-332-45 peptide-conjugate is shown on the right. E. coli at 1×10^6 CFU/ml were incubated with varied peptide concentrations (free peptide and peptide conjugate). Serial dilutions (0.1× and 0.01×) of cell cultures in all plates are shown across the figure.

E. coli BL21(DE3) [2] = conditions: cited from earlier work
E. coli = conditions: free peptide; cited from earlier work

Row | Substance | Measured Potency: Free Peptide (LC90) (E. coli BL21(DE3) [1]; free peptide) [µg/mL] | Measured Potency: Peptide/Agarose Conjugate (LC90) (E. coli BL21(DE3) [1]) | Measured Potency: Peptide/Agarose Conjugate (LC50) (E. coli BL21(DE3) [1]; Escherichia coli, 2 h, pH 7.5) | bacteria killed (E. coli BL21(DE3) [1]; free peptide, 1 μg/ml, E. coli 1×10^6 CFU/ml, 2 h) [%] | microbicidal efficiency (E. coli BL21(DE3) [1]; free peptide, 10 μg/ml) [%] | microbicidal efficiency (E. coli BL21(DE3) [1]; free peptide, 100 μg/ml) [%] | Reported Potency: Free Peptide (LC90) (E. coli BL21(DE3) [2]) [µg/mL] | antimicrobial activity against E. coli (E. coli) [mg/mL] | reduction in the number of colonies (E. coli BL21(DE3) [1]; free peptide, 1 μg/ml) [%] | reduction in the number of colonies (E. coli BL21(DE3) [1]; free peptide, 10 μg/ml) [%]
1 | RGRRSSRRKK-NH2 [HBD-336-45(Rev2), RGRRSSRRKK-NH2] | 0.15 | ~26 µg/mL | – | – | – | – | – | – | – | –
2 | KSSTRGRKSSRRKK-OH [HBD-332-45, KSSTRGRKSSRRKK] | 0.20 | ~75 µg/mL | ~10 μg/ml (LC50) | ~93 | > 99 | > 99 | ~1 | 1 ± 0.1 | – | –
3 | RGRKSSRRKK-OH [HBD-336-45, RGRKSSRRKK] | 2.23 | >100 μg/m μg/ml | – | – | – | – | ~4 | – | ~67 | ~97
